According to ChEMBL document CHEMBL1135518 (J Med Chem, 2002):

Tests used:
[1] = biological target: Sodium-dependent serotonin transporter (Rattus norvegicus, UniProt P31652); assay: The binding affinity at the 5-HT reuptake sites determined using competition binding assay
[2] = biological target: T1, 5-hydroxytryptamine receptor 1A (Homo sapiens, UniProt P08908); assay: The binding affinity at the 5-hydroxytryptamine 1A receptor determined using [3H]5-CT
T1 sequence (P08908 whole entry): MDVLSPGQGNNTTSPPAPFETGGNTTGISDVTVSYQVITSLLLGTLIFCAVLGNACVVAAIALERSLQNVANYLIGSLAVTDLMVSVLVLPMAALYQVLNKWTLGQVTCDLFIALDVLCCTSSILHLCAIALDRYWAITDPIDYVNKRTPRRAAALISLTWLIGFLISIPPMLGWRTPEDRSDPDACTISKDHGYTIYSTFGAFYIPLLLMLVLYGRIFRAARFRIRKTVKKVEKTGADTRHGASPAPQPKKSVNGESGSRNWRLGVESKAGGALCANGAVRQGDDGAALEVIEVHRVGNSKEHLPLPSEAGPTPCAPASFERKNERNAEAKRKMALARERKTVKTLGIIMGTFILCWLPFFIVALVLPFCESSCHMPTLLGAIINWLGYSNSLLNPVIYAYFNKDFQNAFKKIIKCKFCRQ

[3] = biological target: D(2) dopamine receptor (Rattus norvegicus, UniProt P61169); assay: The binding affinity at the Dopamine receptor D2 determined using [3H]spiperone
Chain of D(2) dopamine receptor (P61169 whole entry): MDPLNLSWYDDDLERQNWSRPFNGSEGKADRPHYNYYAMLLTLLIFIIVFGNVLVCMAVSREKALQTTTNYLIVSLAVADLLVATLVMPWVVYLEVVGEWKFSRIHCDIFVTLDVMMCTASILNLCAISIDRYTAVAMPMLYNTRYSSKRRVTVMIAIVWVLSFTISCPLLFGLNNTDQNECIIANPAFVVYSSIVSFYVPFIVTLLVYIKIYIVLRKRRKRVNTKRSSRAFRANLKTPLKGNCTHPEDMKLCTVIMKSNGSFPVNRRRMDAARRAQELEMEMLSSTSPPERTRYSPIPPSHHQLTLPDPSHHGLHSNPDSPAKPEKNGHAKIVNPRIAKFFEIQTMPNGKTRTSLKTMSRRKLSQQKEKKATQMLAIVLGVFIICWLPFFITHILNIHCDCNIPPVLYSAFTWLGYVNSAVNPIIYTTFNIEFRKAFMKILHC

[4] = biological target: T2, 5-hydroxytryptamine receptor 2C (Rattus norvegicus, UniProt P08909); assay: The binding affinity at 5-hydroxytryptamine 2C receptor was determined using [3H]mesulergine
T2 sequence (P08909 whole entry): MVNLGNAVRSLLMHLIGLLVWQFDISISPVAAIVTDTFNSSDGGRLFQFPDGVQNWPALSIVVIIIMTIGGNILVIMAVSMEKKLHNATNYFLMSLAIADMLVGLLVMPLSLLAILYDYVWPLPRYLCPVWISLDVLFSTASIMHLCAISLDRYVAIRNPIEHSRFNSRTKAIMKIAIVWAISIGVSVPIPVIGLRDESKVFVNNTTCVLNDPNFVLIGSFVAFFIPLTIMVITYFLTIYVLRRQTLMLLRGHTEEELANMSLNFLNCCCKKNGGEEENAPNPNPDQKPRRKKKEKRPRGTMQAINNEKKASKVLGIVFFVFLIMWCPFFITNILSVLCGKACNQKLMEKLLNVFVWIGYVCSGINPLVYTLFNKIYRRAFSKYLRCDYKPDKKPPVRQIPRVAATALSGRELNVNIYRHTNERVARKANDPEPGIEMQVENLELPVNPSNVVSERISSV

[5] = biological target: 5-hydroxytryptamine receptor 2A (Rattus norvegicus, UniProt P14842); assay: The binding affinity at 5-hydroxytryptamine 2A receptor was determined using [3H]ketanserin
Chain of 5-hydroxytryptamine receptor 2A (P14842 whole entry): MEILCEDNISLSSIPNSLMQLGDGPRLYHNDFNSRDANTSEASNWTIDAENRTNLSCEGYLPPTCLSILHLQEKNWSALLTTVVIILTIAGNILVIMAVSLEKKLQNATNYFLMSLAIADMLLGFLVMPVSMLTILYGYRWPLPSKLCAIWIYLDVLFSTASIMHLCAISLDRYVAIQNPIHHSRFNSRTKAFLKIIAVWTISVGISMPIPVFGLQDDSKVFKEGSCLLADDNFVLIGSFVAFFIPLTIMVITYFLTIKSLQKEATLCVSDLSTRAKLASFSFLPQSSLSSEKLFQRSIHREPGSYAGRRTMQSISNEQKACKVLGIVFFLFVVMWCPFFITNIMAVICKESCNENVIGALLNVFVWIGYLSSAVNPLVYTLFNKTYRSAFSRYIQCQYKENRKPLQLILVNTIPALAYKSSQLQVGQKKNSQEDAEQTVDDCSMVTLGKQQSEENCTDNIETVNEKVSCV

[6] = biological target: T3, Serotonin 3 (5-HT3) receptor (Rattus norvegicus, UniProt P35563+Q9JJ16); assay: The binding affinity at 5-hydroxytryptamine 3 receptor was determined using [3H]LY-278584; format: protein-complex assay
T3 sequence (P35563 whole entry): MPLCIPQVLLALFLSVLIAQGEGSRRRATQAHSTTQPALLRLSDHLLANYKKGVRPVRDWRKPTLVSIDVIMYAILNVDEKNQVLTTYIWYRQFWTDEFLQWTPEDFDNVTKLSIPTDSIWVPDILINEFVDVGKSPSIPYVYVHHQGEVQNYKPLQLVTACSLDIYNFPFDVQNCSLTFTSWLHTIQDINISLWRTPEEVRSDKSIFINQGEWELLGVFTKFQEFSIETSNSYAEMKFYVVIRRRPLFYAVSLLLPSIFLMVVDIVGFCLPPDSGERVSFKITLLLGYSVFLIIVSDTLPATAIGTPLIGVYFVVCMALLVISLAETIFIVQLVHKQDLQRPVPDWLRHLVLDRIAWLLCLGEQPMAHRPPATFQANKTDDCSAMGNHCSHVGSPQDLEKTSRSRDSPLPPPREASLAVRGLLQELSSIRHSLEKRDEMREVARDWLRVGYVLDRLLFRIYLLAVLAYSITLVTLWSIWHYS
T3 sequence (Q9JJ16 whole entry): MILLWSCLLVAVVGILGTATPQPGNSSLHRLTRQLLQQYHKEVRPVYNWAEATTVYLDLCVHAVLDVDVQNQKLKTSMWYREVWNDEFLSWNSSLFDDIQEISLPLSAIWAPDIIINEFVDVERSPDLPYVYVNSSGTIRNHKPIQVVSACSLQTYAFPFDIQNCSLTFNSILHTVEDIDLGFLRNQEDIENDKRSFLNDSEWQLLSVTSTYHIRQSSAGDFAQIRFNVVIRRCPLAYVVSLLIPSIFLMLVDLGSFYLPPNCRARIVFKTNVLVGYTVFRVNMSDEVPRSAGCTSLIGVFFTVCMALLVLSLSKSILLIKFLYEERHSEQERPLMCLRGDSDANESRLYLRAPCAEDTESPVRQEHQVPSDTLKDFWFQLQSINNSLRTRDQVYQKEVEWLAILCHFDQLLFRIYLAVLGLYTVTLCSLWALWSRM

Chain of Sodium-dependent serotonin transporter (P31652 whole entry): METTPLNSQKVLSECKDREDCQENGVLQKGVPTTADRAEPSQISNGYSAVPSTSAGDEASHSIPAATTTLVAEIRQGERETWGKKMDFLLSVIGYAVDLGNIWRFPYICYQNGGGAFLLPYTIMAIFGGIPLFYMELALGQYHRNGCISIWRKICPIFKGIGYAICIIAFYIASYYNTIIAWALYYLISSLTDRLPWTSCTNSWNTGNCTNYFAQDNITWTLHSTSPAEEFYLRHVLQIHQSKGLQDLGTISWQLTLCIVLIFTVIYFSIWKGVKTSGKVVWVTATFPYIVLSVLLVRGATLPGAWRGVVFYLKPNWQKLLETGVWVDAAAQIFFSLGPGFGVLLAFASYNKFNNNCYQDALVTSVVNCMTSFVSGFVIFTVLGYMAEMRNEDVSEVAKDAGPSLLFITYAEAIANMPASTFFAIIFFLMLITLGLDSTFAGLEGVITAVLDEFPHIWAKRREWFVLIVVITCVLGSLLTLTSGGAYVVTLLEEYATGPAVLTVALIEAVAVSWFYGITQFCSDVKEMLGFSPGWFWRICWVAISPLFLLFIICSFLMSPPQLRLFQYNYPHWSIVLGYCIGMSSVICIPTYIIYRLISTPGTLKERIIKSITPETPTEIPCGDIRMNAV

## COc1cccc2c1N1CCN(C)C[C@@H]1c1ccccc1C2
[1]
  IC50: 1650 nM
[2]
  Ki: 800 nM
[3]
  Ki: 460 nM
[4]
  Ki: 0.16 nM
[5]
  IC50: 0.55 nM
[6]
  Ki: > 5000 nM

## COc1cccc2c1N1CCN(C)C[C@H]1c1ccccc1C2
[1]
  IC50: > 10000 nM
[2]
  Ki: 255 nM
[3]
  Ki: 20 nM
[4]
  Ki: 0.39 nM
[5]
  IC50: 0.75 nM
[6]
  Ki: 1650 nM

## COc1cccc2c1N1CCN(C)CC1c1ccccc1C2 (racemic)
[1]
  IC50: 2900 nM
[2]
  Ki: 345 nM
[3]
  Ki: 28 nM
[4]
  Ki: 0.21 nM
[5]
  IC50: 0.7 nM
[6]
  Ki: 2900 nM
